Source: paper PMC4359537, “Pharmacological characterisation of murine α4β1δ GABAA receptors expressed in Xenopus oocytes” (BMC Neuroscience, 2015)
Several values for one entry are separate records, joined by “and”; a condition that tells them apart may be missing. Equal values may be shown once. Entries after “also recorded” stand apart in the source; their conditions may differ. Read-outs that look alike come from different tables or passages of the source.

Experiments:
α2β1γ2 receptors = conditions: Xenopus oocytes; cited from earlier work
α4β1δ receptors = biological target: T1, α4β1δ receptors (UniProt P18506+P50571+Q9D6F4); assay: Two-electrode voltage-clamp of murine α4β1δ GABAA receptors expressed in Xenopus oocytes; type: cell-based, mouse
T1 construct: expressed in transfected cells; host or cells: Xenopus laevis oocytes, cDNA-injected (pRK5 vector), ratio 1:1:5
T1 sequence (Q9D6F4 36-552): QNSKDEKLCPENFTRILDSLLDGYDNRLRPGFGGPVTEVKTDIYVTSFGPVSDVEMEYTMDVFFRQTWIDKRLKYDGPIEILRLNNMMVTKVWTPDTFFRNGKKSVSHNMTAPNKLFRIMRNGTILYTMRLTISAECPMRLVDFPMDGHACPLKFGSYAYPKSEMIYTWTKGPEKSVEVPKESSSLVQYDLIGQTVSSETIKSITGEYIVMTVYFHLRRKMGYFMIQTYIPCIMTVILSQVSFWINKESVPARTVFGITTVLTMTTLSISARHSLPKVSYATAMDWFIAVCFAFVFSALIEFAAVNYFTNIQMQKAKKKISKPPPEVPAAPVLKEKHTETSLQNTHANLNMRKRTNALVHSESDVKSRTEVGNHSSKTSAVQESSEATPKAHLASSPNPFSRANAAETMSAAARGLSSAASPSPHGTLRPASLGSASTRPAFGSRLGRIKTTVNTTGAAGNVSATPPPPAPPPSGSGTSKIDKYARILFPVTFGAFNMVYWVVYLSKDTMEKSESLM
T1 sequence (P50571 26-474): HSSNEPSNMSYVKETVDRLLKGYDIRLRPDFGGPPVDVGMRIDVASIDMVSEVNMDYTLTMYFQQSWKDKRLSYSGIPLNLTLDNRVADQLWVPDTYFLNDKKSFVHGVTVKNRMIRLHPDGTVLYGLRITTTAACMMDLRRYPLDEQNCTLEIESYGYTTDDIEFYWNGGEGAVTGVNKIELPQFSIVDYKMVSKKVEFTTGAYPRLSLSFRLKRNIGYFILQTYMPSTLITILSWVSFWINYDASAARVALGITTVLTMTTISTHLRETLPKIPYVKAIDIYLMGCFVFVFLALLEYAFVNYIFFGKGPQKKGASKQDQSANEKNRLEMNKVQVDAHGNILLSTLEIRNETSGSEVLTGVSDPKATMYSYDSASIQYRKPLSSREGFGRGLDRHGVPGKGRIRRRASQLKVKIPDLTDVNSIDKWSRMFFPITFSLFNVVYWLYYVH
T1 sequence (P18506 17-449 limits assumed): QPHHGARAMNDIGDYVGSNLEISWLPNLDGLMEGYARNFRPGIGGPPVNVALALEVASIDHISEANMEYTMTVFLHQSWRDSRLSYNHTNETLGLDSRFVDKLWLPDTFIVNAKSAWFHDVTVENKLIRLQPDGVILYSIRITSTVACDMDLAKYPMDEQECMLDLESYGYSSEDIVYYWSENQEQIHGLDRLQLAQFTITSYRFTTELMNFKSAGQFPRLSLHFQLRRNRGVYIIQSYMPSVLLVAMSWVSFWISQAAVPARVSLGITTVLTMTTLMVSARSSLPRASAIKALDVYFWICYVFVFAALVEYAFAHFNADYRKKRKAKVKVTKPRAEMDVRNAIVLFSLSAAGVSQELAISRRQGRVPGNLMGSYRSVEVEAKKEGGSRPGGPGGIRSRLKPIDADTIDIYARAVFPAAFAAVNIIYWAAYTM
Protocol: (§1) Oocytes from Xenopus laevis toads were prepared as described. […] To obtain free oocytes, ovarian lobes were cut into pieces and incubated in OR2 (85 mM NaCl, 5 mM HEPES, 1 mM MgCl2, pH adjusted to 7.6 with KOH) supplemented with 2-2.5 mg/mL collagenase type 1 (Lorne Laboratories, Danehill, UK) for 3-4 hrs. Oocytes were washed several times in OR2 and subsequently in Barth’s solution (88 mM NaCl, 1 mM KCl, 0.33 mM Ca(NO3)2, 0.41 mM CaCl2, 0.82 mM MgSO4, 2.4 mM NaHCO3, 10 mM HEPES, pH adjusted to 7.6 with NaOH) to isolate cells and remove follicular membranes. After preparation, the oocytes were injected with 27 or 55 nL of 30 ng/μL cDNA in a ratio of 1:1 (α4β1) or 1:1:5 (α4β1δ). Oocytes were subsequently maintained at 18°C in Barth’s solution supplemented with gentamycin (Invitrogen, Paisley, UK).
(§2) Electrodes were filled with 3 M KCl and had resistances of 0.5 to 3 MΩ. The oocytes were clamped at a holding potential of -60 mV and were perfused with buffer (100 mM NaCl, 2 mM KCl, 2 mM CaCl2, 1 mM MgCl2, 5 mM HEPES, pH adjusted to 7.4 with NaOH) throughout the recordings. All currents were adjusted when necessary for voltage drop using equation 1:1 I=Imeasured⋅Vh−Vrev/Vh−Vrev+ΔV
(§3) Drugs were applied using a fast application system coupled to a small bath volume ([…]), enabling drug onset times of ~ 10 ms.
(§4) For each co-application, the peak-response was measured. […] All monophasic inhibition-curves were fitted to a modified version of equation 2.
Normalized responses were pooled and plotted as mean ± SEM from at least four different oocytes taken from at least two different Xenopus toads. For statistical evaluation, a repeated measures ANOVA with Dunnett’s post test was used. The significance level was set at *P < 0.05, **P < 0.01, ***P < 0.001. For inhibition curves, an F-test was performed to determine whether the data was either monophasic or biphasic.

α4β1 receptors = biological target: T2, α4β1 receptors (Mus musculus, UniProt P50571+Q9D6F4); assay: Two-electrode voltage-clamp of murine α4β1 GABAA receptors expressed in Xenopus oocytes; type: cell-based; conditions: for EC50: GABA-activated peak currents, oocytes clamped at -60 mV
T2 construct: expressed in transfected cells; host or cells: Xenopus laevis oocytes, cDNA-injected (pRK5 vector), ratio 1:1
T2 sequence (Q9D6F4 36-552): as the sequence (Q9D6F4 36-552) above
T2 sequence (P50571 26-474): as the sequence (P50571 26-474) above
Protocol: as §1, §2, §3, §4

α6β3δ receptors = conditions: cited from earlier work
α1β2γ2 receptors = conditions: steady-state GABA responses, HEK293 cells; cited from earlier work
[1] = inhibition of peak response to GABA EC20 after pre-application
[2] = Hill coefficient of GABA concentration response curve
[3] = depending upon expression levels
[4] = inhibition of steady-state (desensitized) response after 70 s co-application with GABA EC75 (3 μM)
[5] = GABA EC75 (8 μM), biphasic inhibition
[6] = inhibition of peak response to GABA EC75 (3 μM), 1 min pre-incubation

O=C(N/N=C/c1ccccc1O)c1ccccc1O [SCS, salicylidine salicylhydrazide]
IC50 (α2β1γ2 receptors): 4.36 nM
maximum inhibition (α2β1γ2 receptors): ~ 33%
steady-state level of inhibition (α4β1δ receptors; GABA EC20, incomplete inhibition of the GABA current): 67.2 ± 3.2 % of control
IC50 (α4β1δ receptors; [1]): 4.2 nM
pIC50 ± SEM (α4β1δ receptors; [1]): 8.37 ± 0.25

NCCCC(=O)O [GABA, γ-Aminobutyric acid]
EC50 (α4β1 receptors; read-out: EC50): 2700 nM
EC50 (α4β1 receptors; read-out: pEC50 ± SEM (converted)): 2750 nM
nH (± SEM) (α4β1 receptors; [2]): 0.87 and 0.87 ± 0.079
maximal currents to GABA (α4β1 receptors; [3]): 100 to 3000 nA
nH (± SEM) (α4β1δ receptors; [2]): 1.1 and 1.1 ± 0.11
maximal currents to GABA (α4β1δ receptors; [3]): 300 to 3000 nA

C[C@]12CC[C@@H](O)C[C@H]1CC[C@@H]1[C@@H]2CC[C@]2(C)[C@@H](C(=O)CO)CC[C@@H]12 [THDOC, tetrahydro-deoxycorticosterone]
potentiation of GABA peak-response (α4β1δ receptors; THDOC 30 and 100 nM co-applied with GABA EC7, P < 0.05): significantly increased; also recorded: significant increase; also recorded: able to potentiate

[Cl][Cu][Cl] [Cu^2+]
maximal inhibition of the steady-state response (α6β3δ receptors; HEK293): ~ 68%
IC50 (α6β3δ receptors; steady-state GABA responses, HEK293 cells): 65 nM
nH (± SEM) (α4β1δ receptors; Hill slope of inhibition curve, steady-state response, GABA EC75): −1.2 ± 0.13
maximal inhibition of desensitized GABA responses (α4β1δ receptors; at 10 μM, GABA EC75, oocytes): 98 % inhibition
IC50 (α4β1δ receptors; [4]): 820 nM
pIC50 ± SEM (α4β1δ receptors; [4]): 6.09 ± 0.04
IC50 (α1β2γ2 receptors): 85000 nM

[Cl-].[Cl-].[Zn+2] [Zn^2+]
share of the total inhibition, high potency component (IC50A) (α4β1 receptors; [5]): ~ 25%
share of the total inhibition, lower potency component (IC50B) (α4β1 receptors; [5]): ~ 75%
pIC50A ± SEM (α4β1 receptors; GABA EC75 (8 μM), high potency component of two-site fit): 9.87 ± 0.22
IC50 (α4β1 receptors; GABA EC75 (8 μM), high potency component of two-site fit, read-out: IC50A): 0.13 nM
pIC50B ± SEM (α4β1 receptors; GABA EC75 (8 μM), lower potency component of two-site fit): 7.25 ± 0.13
IC50 (α4β1 receptors; GABA EC75 (8 μM), lower potency component of two-site fit, read-out: IC50B): 56 nM
nH (± SEM) (α4β1 receptors; Hill slope of IC50B component, GABA EC75): -1.1 ± 0.13
nH (± SEM) (α4β1δ receptors; Hill slope of inhibition curve, peak response, GABA EC75): −0.75 ± 0.041
potency shift in IC50 values, α4β1δ versus α4β1 (α4β1δ receptors; from low micromolar to mid nanomolar): approximately 60 fold
IC50 (α4β1δ receptors; [6]): 3300 nM
pIC50 ± SEM (α4β1δ receptors; [6]): 5.48 ± 0.03
